Source: patent publication US20250011351A1, “[…] O-ACETYLPSILOCIN, SALTS AND SOLID STATE FORMS THEREOF” (Terran Biosciences Inc., priority 2021, published 2025)
“Also recorded” adds a separate entry of the source.

Experiments:
[1] = Humidity exposure (RH jars, hygroscopicity test; handling at ambient humidity); assay type: physicochemical
Experimental: Solids deliquesced within approx. 1 hour of exposure to elevated relative humidity. The sample was capped and placed in a freezer for storage.

[2] = Estimated solubility by adding solvent in aliquots to weighed solid, dissolution judged by visual inspection; conditions: for Solubility: room temperature
[3] = Dynamic vapor sorption (DVS) analysis with XRPD of the post-DVS specimen; assay type: physicochemical
Experimental: (§1) DVS analysis was carried out using a TA Instruments Q5000 Dynamic Vapor Sorption analyzer. The instrument was calibrated with standard weights and a sodium bromide standard for humidity. Approximately 10-25 mg of sample was loaded into a metal-coated quartz pan for analysis. The sample was analyzed at 25° C. with a maximum equilibration time of one hour in 10% relative humidity (RH) steps from 5 to 95% RH (adsorption cycle) and from 95 to 5% RH (desorption cycle). The movement from one step to the next occurred either after satisfying the equilibrium criterion of 0.01% weight change or, if the equilibrium criterion was not met, after one hour. The percent weight change values were calculated using Microsoft Excel®.
as §1, with “Dynamic Vapor Sorption (DVS)” for “DVS”, “is” for “was”, “is” for “were”, “Excel.” for “Excel®.”

[4] = molecular target: T1, 5-HT2A receptors (Mus musculus, UniProt P35363); assay: Psilocybin-induced head-twitch response in mice, antagonist given i.v. 7 min after psilocybin; assay type: in vivo, C57BL/6J mice; conditions: for effect on psilocybin-induced head-twitch response: cumulative head twitches until 40 min, groups of 3 mice; for effect on psilocybin-induced head twitch, summary of Examples 13-21: antagonist administered after psilocybin, compared to vehicle-treated mice, dose not restated; for Result (suppression of psilocybin-induced head twitch): 5HT2A antagonist i.v. at T=7 min
T1 construct: from tissue; host or cells: whole living C57BL/6J mice (in vivo behavioural assay)
Description: The head-shake response is elicited by a wide variety of known hallucinogens such as LSD, psilocybin, psilocin, N,N-dimethyltryptamine (DMT), and mescaline as well as serotonin-releasing agents and direct 5-HT2 agonists. […] Later studies have confirmed 5-HT2A receptors are the primary, direct mediators of the response and that the headshake response in rats is essentially the same as head-twitches in mice, at least in regards to similarity in appearance and 5-HT2A receptor dependence.
Male C57BL/6J mice (approximately 25 g) were group housed. Animals were maintained under a 12 h light/dark cycle, at 23° C. with humidity controlled.
(§2) At T=−60 min, C57BL/6J mice were individually housed into transparent observation cages with bedding removed and left to habituate. At T=−3 min, mice were placed into heated cages at 40° C. At T=0 h, groups of 3 mice were dosed intraperitoneally with psilocybin (2 mg/kg). Following dosing, mice were replaced into the heated cages and head-twitch responses continuously scored for 7 min. After 7 min, mice were intravenously dosed via the lateral tail vein with either vehicle 1 (saline) or volinanserin 1 mg/kg in 5 mL/kg dosing volumes. Mice were replaced into the observation cages and head twitch behavior were monitored until 40 min after agonist dosing. Cumulative head-twitches were measured every 2 minutes until 40 minutes after agonist dosing.
as §2, with “min. […]” for “min. After 7 min, mice were intravenously dosed via the lateral tail vein with either vehicle 1 (saline) or volinanserin 1 mg/kg in 5 mL/kg dosing volumes.”, “behavior was” for “behavior were”, “Cumulative head-twitch behavior was” for “Cumulative head-twitches were”
as §2, with “min. […]” for “min. After 7 min, mice were intravenously dosed via the lateral tail vein with either vehicle 1 (saline) or volinanserin 1 mg/kg in 5 mL/kg dosing volumes.”, “behavior was” for “behavior were”, “Cumulative head-twitch behavior was” for “Cumulative head-twitches were”
as §2, with “min. […]” for “min. After 7 min, mice were intravenously dosed via the lateral tail vein with either vehicle 1 (saline) or volinanserin 1 mg/kg in 5 mL/kg dosing volumes.”, “behavior was” for “behavior were”, “Cumulative head-twitch behavior was” for “Cumulative head-twitches were”
as §2, with “min. […]” for “min. After 7 min, mice were intravenously dosed via the lateral tail vein with either vehicle 1 (saline) or volinanserin 1 mg/kg in 5 mL/kg dosing volumes.”, “behavior was” for “behavior were”, “Cumulative head-twitch behavior was” for “Cumulative head-twitches were”
At T=−60 min, C57BL/6J mice were individually housed into transparent observation cages with bedding removed and left to habituate.

[5] = antagonist 1 mg/kg i.v. 7 min after psilocybin 2 mg/kg i.p.
[6] = antagonist 4 mg/kg i.v. 7 min after psilocybin 2 mg/kg i.p.
[7] = psilocybin 2 mg/kg i.p., head twitches scored to 40 min

T1 sequence (P35363 whole entry): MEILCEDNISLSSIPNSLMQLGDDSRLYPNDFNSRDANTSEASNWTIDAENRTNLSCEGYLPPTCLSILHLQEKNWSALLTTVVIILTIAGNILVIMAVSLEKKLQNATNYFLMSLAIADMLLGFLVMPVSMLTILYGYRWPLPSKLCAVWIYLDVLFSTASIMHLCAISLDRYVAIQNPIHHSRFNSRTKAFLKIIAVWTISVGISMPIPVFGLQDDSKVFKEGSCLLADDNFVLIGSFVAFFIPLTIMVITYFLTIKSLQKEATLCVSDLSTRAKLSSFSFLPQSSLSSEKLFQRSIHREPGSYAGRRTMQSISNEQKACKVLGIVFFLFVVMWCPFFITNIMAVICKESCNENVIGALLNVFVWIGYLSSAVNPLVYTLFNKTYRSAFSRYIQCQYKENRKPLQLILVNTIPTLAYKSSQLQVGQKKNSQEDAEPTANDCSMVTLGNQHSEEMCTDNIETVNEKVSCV

CC(=O)Oc1cccc2[nH]cc(CCN(C)C)c12.Cl [O-acetyl psilocin hydrochloride]
time to deliquescence ([1]; open vial inside a 75% RH jar (hygroscopicity test)): ≤ 1 h

CC(=O)Oc1cccc2[nH]cc(CCN(C)C)c12.O=C(O)/C=C/C(=O)O [O-acetylpsilocin fumarate Form A, O-acetylpsilocin fumarate]
Solubility ([2]; 1,4-dioxane): <1000 µg/mL
Solubility ([2]; 2-propanol (2-PrOH)): 1000 µg/mL
Solubility ([2]; 50:50 MeOH:water): >33000 µg/mL
Solubility ([2]; 50:50 THF:water): >55000 µg/mL
Solubility ([2]; 70:30 ACN:water): >75000 µg/mL
Solubility ([2]; 70:30 acetone:water): >51000 µg/mL
Solubility ([2]; 95:5 1,4-dioxane:water): 3000 µg/mL
Solubility ([2]; 95:5 ACN:water): 12000 µg/mL
Solubility ([2]; 95:5 EtOH:water): 9000 µg/mL
Solubility ([2]; 95:5 IPA:water): 4000 µg/mL
Solubility ([2]; 95:5 MeOH:water): >26000 µg/mL
Solubility ([2]; 95:5 THF:water): >17000 µg/mL
Solubility ([2]; 95:5 acetone:water): 10000 µg/mL
Solubility ([2]; acetone): <1000 µg/mL
Solubility ([2]; acetonitrile (ACN)): <1000 µg/mL
Solubility ([2]; dichloromethane (DCM)): <1000 µg/mL
Solubility ([2]; ethanol (EtOH)): 2000 µg/mL
Solubility ([2]; ethyl acetate (EtOAc)): <1000 µg/mL
Solubility ([2]; hexanes): <1000 µg/mL
Solubility ([2]; methanol (MeOH)): 2000 µg/mL
Solubility ([2]; tetrahydrofuran (THF)): 1000 µg/mL
Solubility ([2]; toluene): <1000 µg/mL
Solubility ([2]; water): 11000 µg/mL
hygroscopicity (in words) ([3]; DVS at 25° C., RH range given with the value): non-hygroscopic
overall water uptake ([3]; DVS, range between 5-95% RH): approx. 0.1%

O=c1[nH]c2ccccc2n1CCN1CCN(c2cccc(C(F)(F)F)c2)CC1 [flibanserin]
effect on psilocybin-induced head-twitch response [4, 5]: partially suppressed
effect on psilocybin-induced head-twitch response [4, 6]: partially suppressed
effect on psilocybin-induced head twitch, summary of Examples 13-21 [4]: partial suppression
Result (suppression of psilocybin-induced head twitch) [4, 7]: Partial suppression of head twitch

O=C(c1ccc(F)cc1)C1CCN(CCn2c(=O)[nH]c3ccccc3c2=O)CC1 [ketanserin]
effect on psilocybin-induced head-twitch response ([4]; antagonist 2 mg/kg i.v. 7 min after psilocybin 2 mg/kg i.p.): completely suppressed

COc1ccc(NC(=O)Nc2ccc(F)cc2F)cc1-c1c(Br)cnn1C [nelotanserin]
effect on psilocybin-induced head-twitch response [4, 5]: partially suppressed
effect on psilocybin-induced head-twitch response [4, 6]: completely suppressed; also recorded: completed suppressed
effect on psilocybin-induced head twitch, summary of Examples 13-21 [4]: partial suppression
Result (suppression of psilocybin-induced head twitch) [4, 7]: Partial suppression of head twitch,
Result (suppression of psilocybin-induced head twitch) at high dose ([4]; psilocybin 2 mg/kg i.p., antagonist at high dose (4 mg/kg) i.v. at T=7 min, head twitches scored to 40 min): full suppression at high dose

CC(=O)Oc1cccc2[nH]cc(CCN(C)C)c12.O=C(O)/C=C\C(=O)O [non-crystalline maleate salt, O-acetyl psilocin maleate]
physical stability of the non-crystalline material ([1]; ambient relative humidity (50% RH in summertime)): unstable

CC(=O)Oc1cccc2[nH]cc(CCN(C)C)c12.O=P(O)(O)O [phosphate salt (Forms A+B), O-acetyl psilocin phosphate]
deliquescence ([1]; 65% RH): deliquesce
hygroscopicity ([1]; evaluation using RH jars): low

N#Cc1c[nH]c2c(C(=O)N3CCN(CCc4ccc(F)cc4)CC3)cccc12 [pruvanserin]
effect on psilocybin-induced head-twitch response [4, 5]: completely suppressed
effect on psilocybin-induced head twitch, summary of Examples 13-21 [4]: full ending
Result (suppression of psilocybin-induced head twitch) [4, 7]: Full suppression of head twitch

Cc1nc2sccn2c(=O)c1CCN1CCC(=C(c2ccc(F)cc2)c2ccc(F)cc2)CC1 [ritanserin]
effect on psilocybin-induced head-twitch response [4, 5]: completely suppressed
effect on psilocybin-induced head twitch, summary of Examples 13-21 [4]: full ending
Result (suppression of psilocybin-induced head twitch) [4, 7]: Full suppression of head twitch

COc1cccc([C@H](O)C2CCN(CCc3ccc(F)cc3)CC2)c1OC [volinanserin]
effect on psilocybin-induced head-twitch response [4, 5]: completely suppressed
effect on psilocybin-induced head twitch, summary of Examples 13-21 [4]: full ending
Result (suppression of psilocybin-induced head twitch) [4, 7]: Full suppression of head twitch

Maleate
Water solubility ([2]; water): >50000 µg/mL
Water uptake ([3]; 5-95% RH): ~0.8, 5-95%
Water uptake (25-65% RH) % ([3]; 25-65% RH): ~0.3%

Psilocybin Mesylate
behaviour when handled at ambient humidity ([1]; ambient humidity (~50-60%)): became tacky and deliquesced
